{"source": "patent US20170143771A1", "about": "“COMPOSITION CONTAINING PSEUDOMONAS AERUGINOSA CULTURE SOLUTION EXTRACT HAVING ANTIBIOTIC AND ANTISEPTIC ACTIVITIES, AND USE THEREOF” (JOINT CENTER FOR BIOSCIENCES, priority 2014, published 2017)", "key": {"Staphylococcus aureus": {"tested_on": "Staphylococcus aureus", "assay": "Preservative power test (challenge test), lotion dosage form", "type": "cell-based", "conditions": "0.5%", "procedure": "(§1) In order to investigate the possibility of R1 as a preservative compared with methyl paraben, the preservative power test was conducted by measuring the sterilizing power of a toner dosage form and a lotion dosage form of R1 against gram positive pathogens (Staphylococcus aureus and Bacillus cereus) and gram negative pathogens (Pseudomonas aeruginosa and Escherichia coli). The preservative power test was conducted on the basis of the U.S. Cosmetics, Toiletry, and Fragrance Association (CTFA), and the basis is that a particular material has a possibility as a preservative if the particular material in dosage forms of a toner or lotion kills 99.9% of inoculated bacteria within 7 days.\n(§2) R1 and methyl paraben, which were dissolved in methanol, each were added to the toner dosage form, so that the final concentration of each of R1 and the methyl paraben had 0% and 0.5%, and the S. aureus, B. cereus, P. aeruginosa, and C. albicans cultures each were inoculated in each container. The number of inoculated bacterial cells was 106-107 colony forming unit (CFU)/ml. While the bacteria-inoculated lotions were kept at room temperature, each lotion was diluted immediately, one day, three days, five days, and seven days after the inoculation of bacteria, and 200 μl of the lotions inoculated with S. aureus, B. cereus, and P. aeruginosa each were as plated on LB agar plate, and 200 μl of the lotion inoculated with C. albicans was plated on YPD agar plate. The death or not of bacteria was checked by calculating the number of cells and then comparing the calculated number with the number of initially inoculated bacteria. As control, only methanol was added to the lotion dosage form, and the bacteria culture was inoculated, followed by repeated tests."}, "Bacillus cereus": {"tested_on": "Bacillus cereus", "assay": "Preservative power test (challenge test), lotion dosage form", "type": "cell-based", "conditions": "0.5%", "procedure": "as §1, §2"}, "Pseudomonas aeruginosa": {"tested_on": "Pseudomonas aeruginosa", "assay": "Preservative power test (challenge test), lotion dosage form", "type": "cell-based", "conditions": "0.5%", "procedure": "as §1, §2"}, "Candida albicans": {"tested_on": "Candida albicans", "assay": "Preservative power test (challenge test), lotion dosage form", "type": "cell-based", "conditions": "0.5%", "procedure": "as §1, §2"}, "[1]": {"assay": "DPPH scavenging activity test (antioxidative effect)", "type": "biochemical", "conditions": "concentration of 0.5% or more; 30 minutes, absorbance 517 nm; compared with ascorbic acid (AA)", "procedure": "The color change of the DPPH radical is distinctive as it reacts with a reagent having excellent antioxidative ability. R1, ascorbic acid (AA), and methyl paraben (MTP) each were dissolved at different concentrations in methanol. The thus obtained samples (100 μl) each were dissolved at a concentration of 0.006% in methanol, and mixed with 100 μl of the DPPH radical solution to prepare a total volume of 200 μl, followed by reaction in a light-blocked space for 30 minutes. After completion of the reaction, the absorbance of each mixture was measured at 517 nm to determine antioxidative ability of each sample."}, "S. aureus": {"tested_on": "S. aureus", "assay": "Antibiotic activity of R1 fractions and rhamnolipids (clear zone on agar plate)", "type": "cell-based, Staphylococcus aureus", "conditions": "concluded from fraction activity and LC/MS peaks 1 and 2", "procedure": "1 mg of a mixture state of R1 extracted from a microorganism (P. aeruginosa) culture was dissolved in methanol, and then injected in the sep-Pak vac 1cc tc18 cartridge column. After that, the column was washed with solvent A, and solvent B as a development solvent was injected thereinto. Solvent B with different concentrations was injected into the column, and the fractions passing through the column were collected, and named fraction 1, fraction 2, fraction 3, fraction 4, fraction 5, and fraction 6. The different concentrations of solvent B injected to the column were 50%, 55%, 60%, 65%, 70%, and 75%.\nEach of the obtained fractions was dried, and then dissolved at a concentration of 10 mg/ml in methanol. 20 μl of each of the fractions dissolved in methanol was dropped on an agar plate plated with the S. aureus culture, and cultured at 37° C. for 18 hours. After 18 hours, the clear zone generated on the agar plate was observed."}}}
{"compound": "COC(=O)c1ccc(O)cc1", "note": "[MTP, methyl paraben]", "values": [{"measurement": "survival rate of inoculated bacteria", "setting": "Staphylococcus aureus; Day 0", "value": 100, "unit": "%"}, {"measurement": "survival rate of inoculated bacteria", "setting": "Staphylococcus aureus; Day 1", "value": 0, "unit": "%"}, {"measurement": "survival rate of inoculated bacteria", "setting": "Staphylococcus aureus; Day 3", "value": 0, "unit": "%"}, {"measurement": "survival rate of inoculated bacteria", "setting": "Staphylococcus aureus; Day 5", "value": 0, "unit": "%"}, {"measurement": "survival rate of inoculated bacteria", "setting": "Staphylococcus aureus; Day 7", "value": 0, "unit": "%"}, {"measurement": "survival rate of inoculated bacteria", "setting": "Bacillus cereus; Day 0", "value": 100, "unit": "%"}, {"measurement": "survival rate of inoculated bacteria", "setting": "Bacillus cereus; Day 1", "value": 0.12, "unit": "%"}, {"measurement": "survival rate of inoculated bacteria", "setting": "Bacillus cereus; Day 3", "value": 0.06, "unit": "%"}, {"measurement": "survival rate of inoculated bacteria", "setting": "Bacillus cereus; Day 5", "value": 0.02, "unit": "%"}, {"measurement": "survival rate of inoculated bacteria", "setting": "Bacillus cereus; Day 7", "value": 0.01, "unit": "%"}, {"measurement": "survival rate of inoculated bacteria", "setting": "Pseudomonas aeruginosa; Day 0", "value": 100, "unit": "%"}, {"measurement": "survival rate of inoculated bacteria", "setting": "Pseudomonas aeruginosa; Day 1", "value": 0, "unit": "%"}, {"measurement": "survival rate of inoculated bacteria", "setting": "Pseudomonas aeruginosa; Day 3", "value": 0, "unit": "%"}, {"measurement": "survival rate of inoculated bacteria", "setting": "Pseudomonas aeruginosa; Day 5", "value": 0, "unit": "%"}, {"measurement": "survival rate of inoculated bacteria", "setting": "Pseudomonas aeruginosa; Day 7", "value": 0, "unit": "%"}, {"measurement": "survival rate of inoculated bacteria", "setting": "Candida albicans; Day 0", "value": 100, "unit": "%"}, {"measurement": "survival rate of inoculated bacteria", "setting": "Candida albicans; Day 1", "value": 0, "unit": "%"}, {"measurement": "survival rate of inoculated bacteria", "setting": "Candida albicans; Day 3", "value": 0, "unit": "%"}, {"measurement": "survival rate of inoculated bacteria", "setting": "Candida albicans; Day 5", "value": 0, "unit": "%"}, {"measurement": "survival rate of inoculated bacteria", "setting": "Candida albicans; Day 7", "value": 0, "unit": "%"}, {"measurement": "antioxidative effect (DPPH scavenging activity)", "setting": "[1]", "value": "significantly low antioxidative effect"}]}
{"compound": "CCCCCCCC(CC(=O)O)OC(=O)CC(CCCCCCC)O[C@@H]1O[C@@H](C)[C@H](O)[C@@H](O)[C@H]1O", "note": "(some centres unmarked) [Rha-C10-C10]", "values": [{"measurement": "active ingredient having antibacterial activity", "setting": "S. aureus", "value": "active ingredients having antibacterial activity"}]}
{"compound": "CCCCCCCC(CC(=O)O)OC(=O)CC(CCCCCCC)OC1OC(C)C(O)C(O)C1OC1OC(C)C(O)C(O)C1O", "note": "(stereo not drawn) [Rha-Rha-C10-C10]", "values": [{"measurement": "active ingredient having antibacterial activity", "setting": "S. aureus", "value": "active ingredients having antibacterial activity"}]}
